Experimental data as given in patent publication US12065427B2, “Heterocyclic compounds capable of activating STING” (BOEHRINGER INGELHEIM INTERNATIONAL GMBH, priority 2021, dated 2024).

What was measured:
[1] = biological target: T1, STING R232H-variant (Homo sapiens, UniProt Q86WV6); assay: IRF-inducible SEAP reporter assay in THP1-Blue ISG cells, STING R232H-variant; assay type: cell-based; settings: 24 hours incubation
T1 construct: expressed in transfected cells; host or cells: THP1-Blue ISG hSTING KO clone, retroviral MSCV-ires-GFP-Blasti
T1 sequence (Q86WV6 whole entry, stated change not applied): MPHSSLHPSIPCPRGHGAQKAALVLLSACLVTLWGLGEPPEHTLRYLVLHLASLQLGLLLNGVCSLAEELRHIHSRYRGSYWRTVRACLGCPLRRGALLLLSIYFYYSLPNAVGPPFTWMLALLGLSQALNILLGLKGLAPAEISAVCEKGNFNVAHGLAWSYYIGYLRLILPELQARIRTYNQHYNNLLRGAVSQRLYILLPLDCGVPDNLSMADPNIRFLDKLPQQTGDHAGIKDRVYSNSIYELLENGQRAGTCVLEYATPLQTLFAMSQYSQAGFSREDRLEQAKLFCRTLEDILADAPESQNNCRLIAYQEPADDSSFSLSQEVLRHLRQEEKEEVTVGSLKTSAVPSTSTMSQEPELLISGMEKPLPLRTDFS
Excerpt: (§1) In Vitro Cytokine Induction Measured Via Activation of an Interferon Regulatory Factor Inducible Reporter Gene
(§2) Activation of the STING protein expressed in cell lines results in an increase of interferon production. By the stable integration of an interferon regulatory factor (IRF)-inducible SEAP gene (secreted embryonic alkaline phosphatase) reporter construct the functional interferon signaling pathway can be monitored. Using Invivogen's THP1-Blue™ ISG colorimetric enzyme assay and a suitable optical density (OD) reader the activity of SEAP can be detected and quantified. This technique could be used to characterize pharmacological modification of the STING pathway.
(§3) Several single nucleotide polymorphisms have been identified in the human STING gene. To determine the activity of the above described compounds, THP1-Blue™ ISG reporter cell lines expressing the different human STING variants have been generated. To do so, the endogenous human STING was first deleted using the CRISPR/CAS9 system: THP1-Blue ISG cells were electroporated with ALL-IN-ONE CRISPR plasmids targeting the STING gene (purchased from Sigma encoding the gRNA and GFP as a reporter gene for successful transduction). GFP positive cells then were sorted 24 h post transfection and expanded. Cells were then dispersed in semisolid methocel medium to allow single cell clone isolations. Clones were then screened for cGAMP responsiveness using the Quanti-Blue™ reporter assay. Non-responsive clones were subsequently analysed for STING loss by western blotting and sequencing of the STING locus.
(§4) For the overexpression of the human STING variants, a confirmed THP1-Blue™ ISG hSTING KO clone was transduced with individual retroviral plasmids (MSCV-ires-GFP-Blasti) encoding the allelic variants of hSTING (WT (H232R), HAQ, R232H, AQ and R293Q). Transduced cells were sorted for different levels of GFP fluorescence and STING allele expression was analysed by western blot.
(§5) Measurements of SEAP activity were performed in THP1-Blue™ ISG cells stably expressing the different human STING isoforms and the IRF-inducible SEAP reporter construct. Cells were cultivated in RPMI1640 medium with 10% fetal calf serum, 50 μg/ml Penicillin-Streptomycin, 100 μg/ml Zeocin, and 100 μg/ml Normocin in a 37°, 95% humidity and 5% CO2 incubator.
(§6) In preparation for the assay, the cells were distributed into the assay plates with a density of 10000 cells/15 μL per well. Compounds were prepared by an 8 point serial dilution in 50% aqueous DMSO and a final dilution step into medium to ensure a final DMSO concentration of 0.5% in the assay. 5 μL of diluted compounds were added to the plates, followed by a 24 hours incubation at 37° C.
(§7) At the day of the assay, 75 μl per well of Quanti-Blue™ reagent was added to all wells of the plate and the plate was incubated another 30 minutes at 37° C. The OD at 620 nm was measured on the EnVision reader (PerkinElmer).
(§8) EC50 values and Hill slopes were derived from 8-point four parametric non-linear curve fittings with the Megalab software (Boehringer Ingelheim) using the OD at 620 nm.
(§9) Data of EC50 values can be found in tables 2a-2e.
Data of EC50 values on STING R232H-variant can be found in table 2c: […]

[2] = in vitro; settings: human, Caco-2, pH 7.4
[3] = test system: Human STING (hSTING, residues 155-341); assay: Interaction with hSTING as determined by Differential Scanning Fluorimetry (DSF); assay type: binding; settings: 100 μM test compounds, 5 μM target protein
Method: Interaction with hSTING as Determined by Differential Scanning Fluorimetry (DSF)
In DSF, the temperature at which a protein unfolds, also called the melting temperature Tm, is measured by changes in fluorescence of a dye that binds to the hydrophobic parts of the protein. Tm shifts upon binding of a small molecule are correlated with the binding affinity of this small molecule. As target protein, Human STING (hSTING, residues 155-341, MW: 21578.4 Da; protein stock solution: c=1302 μM stock solution in 20 mM Tris, 100 mM NaCl, 2 mM TCEP pH 8.8) was used, as assay buffer 20 mM Tris, 150 mM NaCI pH7.5 was added where and as necessary.
Final concentrations of components in assay: 100 μM test compounds, 5 μM target protein, “5×” SYPR Orange (from stock solution SYPRO orange solution in DMSO (invitrogen cat.-no. S6650-500 ul), concentration “5000×”)
1) Dilutions of compound stock solutions (10 mM in DMSO) were prepared in assay buffer (20 mM Tris, 150 mM NaCl; pH7.5)
2) 5 μl fluorescent dye stock solution (5000×SYPRO Orange in DMSO) was mixed with 19 μl target protein (1302 μM) and 976 μl assay buffer.
3) 2 μl of this protein-dye-mixture (25×SYPRO Orange and 25 μM Protein) was added to 8 μl diluted compound solution as prepared in step 1. Final volume was 10 μl.
4) With every 20 compounds, two negative controls were measured.
5) The plates were prepared for duplicate measurement and centrifuged for 2 min at 1000 g.
6) For the measurement, a CFX384 Real-Time System (Bio-Rad) was used. The run consisted of 140 cycles with 0.5° C./cycle (temperature ramp 15 s/cycle, 25° C. to 95° C.).
Data analysis: The melting curves were processed in Bio-Rad CFX Manager. Peak type was set to “negative”. Two replicates of TM (melting temperature) measurements were averaged and the standard deviation was calculated.

[4] = biological target: T2, STING AQ-variant (Homo sapiens, UniProt Q86WV6, G230A/H232R/R293Q); assay: IRF-inducible SEAP reporter assay in THP1-Blue ISG cells, STING AQ-variant; assay type: cell-based; settings: 24 hours incubation
T2 construct: expressed in transfected cells; host or cells: THP1-Blue ISG hSTING KO clone, retroviral MSCV-ires-GFP-Blasti
T2 sequence (Q86WV6 whole entry G230A/H232R/R293Q): as the sequence (Q86WV6 whole entry, stated change not applied) above, with G230A, H232R, R293Q counted along it
Excerpt: as §1, §2, §3, §4, §5, §6, §7, §8, §9
Data of EC50 values on STING AQ-variant can be found in table 2e: […]

[5] = biological target: T3, STING R293Q-variant (Homo sapiens, UniProt Q86WV6, H232R/R293Q); assay: IRF-inducible SEAP reporter assay in THP1-Blue ISG cells, STING R293Q-variant; assay type: cell-based; settings: 24 hours incubation
T3 construct: expressed in transfected cells; host or cells: THP1-Blue ISG hSTING KO clone, retroviral MSCV-ires-GFP-Blasti
T3 sequence (Q86WV6 whole entry H232R/R293Q): as the sequence (Q86WV6 whole entry, stated change not applied) above, with H232R, R293Q counted along it
Excerpt: as §1, §2, §3, §4, §5, §6, §7, §8, §9
Data of EC50 values on STING R293Q-variant can be found in table 2d: […]

[6] = biological target: T4, STING HAQ-variant (Homo sapiens, UniProt Q86WV6, G230A/H232R/R293Q/R71H); assay: IRF-inducible SEAP reporter assay in THP1-Blue ISG cells, STING HAQ-variant; assay type: cell-based; settings: STING HAQ-variant (parental or re-introduced), 24 hours incubation
T4 construct: parental THP1-Blue™ ISG cell lines (which express endogenously HAQ); host or cells: THP1-Blue ISG (parental, endogenous HAQ) or STING-KO clone re-transduced with HAQ (MSCV-ires-GFP-Blasti)
T4 sequence (Q86WV6 whole entry R71H/G230A/H232R/R293Q): as the sequence (Q86WV6 whole entry, stated change not applied) above, with R71H, G230A, H232R, R293Q counted along it
Excerpt: as §1, §2, §3, §4, §5, §6, §7, §8, §9
Data of EC50 values on STING HAQ-variant can be found in table 2a. Shown data below were either derived from the parental THP1-Blue™ ISG cell lines (which express endogenously HAQ) or from genetically engineered THP1-Blue™ ISG cell lines in which first STING has been knocked-out and the HAQ specific STING isoform has been re-introduced as described above.

[7] = biological target: T5, STING H232R-variant (Homo sapiens, UniProt Q86WV6, H232R); assay: IRF-inducible SEAP reporter assay in THP1-Blue ISG cells, STING H232R-variant; assay type: cell-based; settings: STING H232R-variant (WT), 24 hours incubation
T5 construct: expressed in transfected cells; host or cells: THP1-Blue ISG hSTING KO clone, retroviral MSCV-ires-GFP-Blasti
T5 sequence (Q86WV6 whole entry H232R): as the sequence (Q86WV6 whole entry, stated change not applied) above, with H232R counted along it
Excerpt: as §1, §2, §3, §4, §5, §6, §7, §8, §9
Data of EC50 values on STING H232R-variant can be found in table 2b: […]

| SMILES | EC50 [1] [nM] | Papp A→B at 10 μM [2] [×10⁻⁶ cm/s] | efflux ratio at 10 μM [2] | thermal shift (ΔTm) [3] [K] | EC50 [4] [nM] | EC50 [5] [nM] | EC50 [6] [nM] | EC50 [7] [nM] |
| --- | --- | --- | --- | --- | --- | --- | --- | --- |
| Cc1cccc2c(-c3cccc4nn(C)cc34)nn(-c3ccc(N4CCC(S(N)(=O)=O)CC4)nc3)c12 [Example #22, 1-(5-{2′,7-dimethyl-1H,2′H-[3,4'′biindazol]-1-yl}pyri-din-2-yl)piperidine-4-sul-fonamide] | 200 | 10 | 1.6 | 23 | 700 | 700 | 700 | 100 |
| CCc1cccc2c(-c3cccc4nn(C)cc34)nn(-c3ccc(N4CCC(C(=O)O)CC4)nc3)c12 [Example #66, 1-(5-{7-ethyl-2′-methyl-1H,2′H-[3,4′-biindazol]-1-yl}pyridin-2-yl)piperidine-4-carboxylic acid] | 200 | – | – | 16 | 800 | 700 | 1600 | 300 |
| Cn1cc2c(-c3nn(-c4ccc(N5CC6C(C5)C6C(=O)O)nc4)c4c(Br)cccc34)cccc2n1 (stereo not drawn) [compound 64, 3-(5-{7-bromo-2′-methyl-1H,2′H-[3,4′-biindazol]-1-yl}pyridin-2-yl)-3-azabicy-clo[3.1.0]hexane-6-car-boxylic acid] | 600 | – | – | – | – | 500 | 700 | 200 |
| Cc1cccc2c(-c3cccc4nn(C)cc34)nn(-c3ccc(N4CCN(C=O)CC4)nc3)c12 [compound 51, 4-(5-(2′,7-dimethyl-1H,2′H-[3,4′-biindazol]-1-yl)pyridin-2-yl)piperazine-1-carbaldehyde] | 50 | – | – | 15 | 200 | 300 | 300 | 50 |
| Cc1cccc2c(-c3cccc4nn(C)cc34)nn(-c3ccc(N4CCn5cncc5C4)nc3)c12 [compound 12, 1-(6-{5H,6H,7H,8H-imidazo[1,5-a]pyrazin-7-yl}pyridin-3-yl)-2′,7-dimethyl-1H,2'H-3,4′-biindazole] | 600 | 11 | 0.4 | 21 | – | 2100 | 1900 | 400 |
| Cc1cccc2c(-c3cccc4nn(C)cc34)nn(-c3ccc(N4CC5C(C4)C5C(N)=O)nc3)c12 (stereo not drawn) [compound 72, 3-(5-{2′,7-dimethyl-1H,2′H-[3,4′-biindazol]-1-yl}pyridin-2-yl)-3-azabicyclo[3.1.0]hexane-6-carboxamide] | 300 | – | – | 18 | 800 | 700 | 1800 | 600 |
| Cc1cccc2c(-c3cccc4nn(C)cc34)nn(-c3ccc(NCc4cncnc4)nc3)c12 [compound 24, 5-{2′,7-dimethyl-1H,2′H-[3,4′-biindazol]-1-yl}-N-[(pyrimidin-5-yl)methyl]pyridin-2-amine] | 2300 | – | – | – | – | 2200 | 2700 | 2000 |
| Cc1cccc2c(-c3cccc4nn(C)cc34)nn(-c3ccc(N4CC5(CN(C=O)C5)C4)nc3)c12 [compound 54, 6-(5-{2′,7-dimethyl-1H,2′H-[3,4′-biinda-zol]-1-yl}pyridin-2-yl)-2,6-diaza-spiro[3.3]heptane-2-carbaldehyde] | – | 38 | 0.8 | 21 | 5300 | – | 2100 | 300 |
| CCc1cccc2c(-c3cccc4nn(C)cc34)nn(-c3ccc(N4CC5C(C4)C5C(=O)O)nc3)c12 (stereo not drawn) [compound 65, 3-(5-{7-ethyl-2′-methyl-1H,2′H-[3,4′-biindazol]-1-yl}pyridin-2-yl)-3-azabicy-clo[3.1.0]hexane-6-car-boxylic acid] | 100 | – | – | 21 | 100 | 100 | 200 | 100 |
| Cc1cccc2c(-c3cccc4nn(C)cc34)nn(-c3ccc(N4CCS(=O)(=O)CC4)nc3)c12 [Example #5, 4-(5-{2,7-dimethyl-1H,2′H-[3,4′-biindazol]-1-yl}pyri-din-2-yl)-1λ^6-thiomorpho-line-1,1-dione] | 1000 | – | – | – | – | 1200 | 1400 | 500 |
